Assay [1] has as its system Nucleic Acid. The experiment in a line: Binding affinity to human telomeric DNA G-quadruplex assessed as change in melting temperature at 20 uM by FRET assay. It counts as nucleic-acid assay.
Assay [2] deals with Nucleic Acid. Nature of the assay: Binding affinity to human telomeric DNA G-quadruplex assessed as change in melting temperature at 5 uM by FRET assay. It counts as nucleic-acid assay.
The target of assay [3] is Telomerase reverse transcriptase (Homo sapiens, UniProt O14746). Nature of the assay: Inhibition of human telomerase in HT1080 cells by TRAP assay.
Assay [4] concerns Nucleic Acid. The experiment in a line: Binding affinity to human telomeric DNA G-quadruplex assessed as change in melting temperature at 1 uM by FRET assay. It counts as nucleic-acid assay.
In assay [5] the test system is Nucleic Acid. The experiment in a line: Binding affinity to human telomeric DNA G-quadruplex assessed as change in melting temperature at 10 uM by FRET assay. The assay is classed as nucleic-acid assay.

pIC50: −log10 of the molar value. A value given as a limit tells only on which side of the number the result lay.

This is an account of results in ChEMBL document CHEMBL1154059, “Synthesis and biological evaluation of novel 4,5-bis(dialkylaminoalkyl)-substituted acridines as potent telomeric G-quadruplex ligands” (Eur J Med Chem, 2009).

Chain of Telomerase reverse transcriptase (O14746 whole entry): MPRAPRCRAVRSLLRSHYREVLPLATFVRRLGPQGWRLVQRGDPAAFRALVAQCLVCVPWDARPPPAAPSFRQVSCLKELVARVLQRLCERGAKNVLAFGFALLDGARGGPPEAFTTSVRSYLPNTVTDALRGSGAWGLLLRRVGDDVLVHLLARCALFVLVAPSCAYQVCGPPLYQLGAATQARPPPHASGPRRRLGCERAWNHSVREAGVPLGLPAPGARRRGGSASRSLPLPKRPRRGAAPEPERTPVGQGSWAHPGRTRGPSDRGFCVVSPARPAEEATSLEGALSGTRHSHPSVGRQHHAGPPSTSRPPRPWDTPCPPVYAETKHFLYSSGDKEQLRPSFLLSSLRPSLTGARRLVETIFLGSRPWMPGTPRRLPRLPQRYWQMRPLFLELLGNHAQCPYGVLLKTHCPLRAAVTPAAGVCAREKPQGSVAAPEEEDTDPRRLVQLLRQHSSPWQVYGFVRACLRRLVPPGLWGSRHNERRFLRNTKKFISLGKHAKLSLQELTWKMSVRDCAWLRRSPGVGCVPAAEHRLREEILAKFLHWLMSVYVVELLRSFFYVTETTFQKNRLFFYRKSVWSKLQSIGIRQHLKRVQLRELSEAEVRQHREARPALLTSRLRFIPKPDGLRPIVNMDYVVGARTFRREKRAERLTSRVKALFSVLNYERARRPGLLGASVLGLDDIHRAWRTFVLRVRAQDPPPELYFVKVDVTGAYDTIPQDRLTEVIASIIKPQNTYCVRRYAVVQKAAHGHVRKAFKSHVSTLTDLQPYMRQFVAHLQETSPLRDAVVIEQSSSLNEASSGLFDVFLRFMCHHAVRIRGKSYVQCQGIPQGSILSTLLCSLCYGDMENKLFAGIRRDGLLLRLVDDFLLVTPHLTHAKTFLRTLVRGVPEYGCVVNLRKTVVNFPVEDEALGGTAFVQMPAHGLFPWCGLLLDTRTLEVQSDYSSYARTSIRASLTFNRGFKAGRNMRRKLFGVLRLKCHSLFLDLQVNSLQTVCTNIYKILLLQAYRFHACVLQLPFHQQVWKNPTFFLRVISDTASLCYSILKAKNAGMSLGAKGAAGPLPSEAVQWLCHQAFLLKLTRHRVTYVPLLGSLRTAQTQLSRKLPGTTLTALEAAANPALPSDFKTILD

For the molecule `CN(C)CCCNCc1cccc2cc3cccc(CNCCCN(C)C)c3nc12`, the shift in melting temperature (ΔTm) (as a rule, the change in melting temperature against a reference sample) in assay [1] was 17.7 °C; in assay [2], 6.7 °C. Further, the pIC50 (commonly −log10 of the IC50, conventionally taken in molar units) in assay [3] is 6.82.

Turning to `CN(C)CCNCc1cccc2cc3cccc(CNCCN(C)C)c3nc12`, the thermal shift (ΔTm) in assay [1] is 10.2 °C; in assay [2], 4 °C. Also, in assay [3], the pIC50 is 5.25.

Turning to `CN(C)CCC(=O)NCc1cccc2cc3cccc(CNC(=O)CCN(C)C)c3nc12`, the thermal shift (ΔTm) in assay [1] was determined as 8.1 °C; in assay [2], 5 °C. Further, the pIC50 in assay [3] is under 4.52.

For `O=C(CN1CCCCC1)NCc1cccc2cc3cccc(CNC(=O)CN4CCCCC4)c3nc12`, the thermal shift (ΔTm) in assay [1] is 14.6 °C; in assay [2], 0.6 °C; in assay [4], 0 °C.

Regarding `NCc1cccc2cc3cccc(CN)c3nc12`, the thermal shift (ΔTm) in assay [1] is 7.3 °C; in assay [4] it was 0 °C. The molecule further had a negative logarithm of the IC50 (pIC50) in assay [3] of under 4.52.

`CN(C)CC(=O)NCc1cccc2cc3cccc(CNC(=O)CN(C)C)c3nc12`: the ΔTm in assay [1] stood at 3.6 °C. The molecule further had a negative logarithm of the IC50 (pIC50) in assay [3] of under 4.52.

For `O=C(CCCN1CCCC1)NCc1cccc2cc3cccc(CNC(=O)CCCN4CCCC4)c3nc12`, the ΔTm in assay [1] came out at 16.4 °C; in assay [5], 11.9 °C; in assay [2], 8.8 °C; in assay [4], 3 °C. The molecule further had a pIC50 in assay [3] of 4.89.

As for `CCN(CC)CC(=O)NCc1cccc2cc3cccc(CNC(=O)CN(CC)CC)c3nc12`, the thermal shift (ΔTm) in assay [1] was 2.4 °C.

Regarding `C[N+]1(CC(=O)NCc2cccc3cc4cccc(CNC(=O)C[N+]5(C)CCCC5)c4nc23)CCCC1`, the thermal shift (ΔTm) was 9.8 °C in assay [1], 7.4 °C in assay [5], 4.3 °C in assay [2] and 0.3 °C in assay [4]. The same molecule gave a pIC50 in assay [3] of 4.57.

For the molecule `O=C(CCN1CCCC1)NCc1cccc2cc3cccc(CNC(=O)CCN4CCCC4)c3nc12`, the shift in melting temperature (ΔTm) in assay [1] stood at 7.6 °C; in assay [5] it was 4.3 °C; in assay [2], 2.8 °C; in assay [4], 0 °C. This molecule showed a pIC50 in assay [3] of 5.22.

For `CN1CCN(CCC(=O)NCc2cccc3cc4cccc(CNC(=O)CCN5CCN(C)CC5)c4nc23)CC1`, the ΔTm was determined as 4.6 °C in assay [1], 2.6 °C in assay [5], 0.5 °C in assay [2] and 0 °C in assay [4]. Besides, the negative logarithm of the IC50 (pIC50) in assay [3] is under 4.52.

For `C[N+](C)(C)CCC(=O)NCc1cccc2cc3cccc(CNC(=O)CC[N+](C)(C)C)c3nc12`, the shift in melting temperature (ΔTm) in assay [1] is 11 °C; in assay [5], 8.2 °C; in assay [2], 5.7 °C; in assay [4] it was 2.1 °C. The molecule also gave a negative-log IC50 (pIC50) in assay [3] of 5.52.

Regarding `O=C(CN1CCCC1)NCc1cccc2cc3cccc(CNC(=O)CN4CCCC4)c3nc12`, the thermal shift (ΔTm) is 2.6 °C in assay [1] and 1.4 °C in assay [2]. This molecule also had a negative logarithm of the IC50 (pIC50) in assay [3] of under 4.52.

In the case of `c1cnc(NCc2cccc3cc4cccc(CNc5ncccn5)c4nc23)nc1`, the shift in melting temperature (ΔTm) in assay [1] stood at 0 °C.

Regarding `c1ccc(CNCc2cccc3cc4cccc(CNCc5ccccc5)c4nc23)cc1`, the ΔTm in assay [1] came out at 4.8 °C.

In the case of `C[N+](C)(C)CC(=O)NCc1cccc2cc3cccc(CNC(=O)C[N+](C)(C)C)c3nc12`, the ΔTm was 16.7 °C in assay [1] and 5.9 °C in assay [2]. In addition, the negative logarithm of the IC50 (pIC50) in assay [3] was 5.14.

Consider `O=C(CCCN1CCCCC1)NCc1cccc2cc3cccc(CNC(=O)CCCN4CCCCC4)c3nc12`, for which the shift in melting temperature (ΔTm) in assay [1] is 10.2 °C; in assay [5], 8.1 °C; in assay [2], 3.7 °C; in assay [4] it was 1.3 °C. The pIC50 in assay [3] is 4.92.

On to `C[N+]1(CCC(=O)NCc2cccc3cc4cccc(CNC(=O)CC[N+]5(C)CCCC5)c4nc23)CCCC1`, for which the thermal shift (ΔTm) in assay [1] is 12.6 °C; in assay [5], 8.7 °C; in assay [2] it was 6.8 °C; in assay [4], 2.3 °C. The molecule also showed a pIC50 in assay [3] of 5.40.

Regarding `CCN(CC)CCC(=O)NCc1cccc2cc3cccc(CNC(=O)CCN(CC)CC)c3nc12`, the shift in melting temperature (ΔTm) in assay [1] was found to be 10.7 °C; in assay [5] it was 9.1 °C; in assay [2], 7.2 °C; in assay [4] it was 2.6 °C.

As for `C[N+]1(CC(=O)NCc2cccc3cc4cccc(CNC(=O)C[N+]5(C)CCCCC5)c4nc23)CCCCC1`, the ΔTm stood at 12.6 °C in assay [1], 8.8 °C in assay [5], 6.8 °C in assay [2] and 2.6 °C in assay [4]. Further, in assay [3], the pIC50 is 4.52.

On to `CN(C)c1ccc(Nc2c3ccc(NC(=O)CCN4CCCC4)cc3nc3cc(NC(=O)CCN4CCCC4)ccc23)cc1`, for which the ΔTm worked out at 41.1 °C in assay [5], 34.7 °C in assay [2] and 29.1 °C in assay [4]. Moreover, the pIC50 in assay [3] is 7.05.

`O=C(CCN1CCCCC1)NCc1cccc2cc3cccc(CNC(=O)CCN4CCCCC4)c3nc12`: the ΔTm was found to be 10.4 °C in assay [1], 7.3 °C in assay [5], 6.6 °C in assay [2] and 2.2 °C in assay [4]. For the same molecule, the negative-log IC50 (pIC50) in assay [3] is under 4.52.
